# Tests used:
# [1] = test system: Escherichia coli NIHJ; experiment: Antimicrobial activity, agar dilution method (minimal inhibitory concentration); type: cell-based
# Description: (§1) The antimicrobial activities of the compounds obtained in the above Examples determined by the standard test method (i.e. agar dilution method) as well as those of the following penicillins as disclosed in U.S. Pat. No. 3,433,784 are shown in Table 2: [drawing 59]
# [2] = test system: Staphylococcus aureus 209P; experiment: as above; type: cell-based
# Description: as §1
# [3] = test system: Psudomonas aeruginosa 104; experiment: as above; type: cell-based
# Description: as §1
# [4] = test system: Klebsiella pneumoniae 602; experiment: as above; type: cell-based
# Description: as §1
# [5] = test system: Proteus vulgaris HX19; experiment: as above; type: cell-based
# Description: as §1
# [6] = test system: Proteus miravilis 2425; experiment: as above; type: cell-based
# Description: as §1
# [7] = test system: Pseudomonas; settings: prior art penicillins; cited from earlier work
Structure (SMILES),MIC [1] [µg/mL],MIC [2] [µg/mL],MIC [3] [µg/mL],MIC [4] [µg/mL],MIC [5] [µg/mL],MIC [6] [µg/mL],anti-Pseudomonas activity [7]
"CC1(C)S[C@@H]2[C@H](NC(=O)[C@H](NC(=O)c3cnc4cccnc4c3O)c3ccc(O)cc3)C(=O)N2[C@H]1C(=O)O (mixture of isomers) [Example 2, D-α-(4-hydroxy-1,5-naphthyridine-3-carbonamido)-p-hydroxyphenylacetamidopenicillanic acid]",0.78,1.56,0.78,6.25,0.0125,–,–
"CCOc1cnc2ccccc2c1C(=O)NC(C(=O)N[C@@H]1C(=O)N2[C@@H]1SC(C)(C)[C@@H]2C(=O)O)c1ccccc1 (stereo partly shown) [B, reference compound]",50,0.39,100,25,12.5,100,–
"CC1(C)S[C@@H]2[C@H](NC(=O)C(C(=O)O)c3ccccc3)C(=O)N2[C@H]1C(=O)O (stereo partly shown) [Carbenicillin, reference compound]",–,–,50,–,0.78,–,not sufficiently strong
"CC1(C)S[C@@H]2[C@H](NC(=O)C(NC(=O)c3ccccn3)c3ccccc3)C(=O)N2[C@H]1C(=O)O (stereo partly shown) [Compound, reference compound]",–,–,–,–,0.39,–,–
"CC1(C)S[C@@H]2[C@H](NC(=O)[C@H](NC(=O)c3cnc4cccnc4c3O)c3ccccc3)C(=O)N2[C@H]1C(=O)O [Example 1, D-α-(4-hydroxy-1,5-naphthyridine-3-carbonamido)benzylpenicillin]",1.56,0.78,1.56,6.25,0.1,3.13,–
"CC1(C)S[C@@H]2[C@H](NC(=O)[C@H](NC(=O)c3cnccc3O)c3ccccc3)C(=O)N2[C@H]1C(=O)O [Example 3, D-α-(4-hydroxypyridine-3-carbonamido)benzylpenicillin]",25,0.39,3.13,25,0.1,6.25,–
"CC1(C)S[C@@H]2[C@H](NC(=O)[C@H](NC(=O)c3nnc4ccccc4c3O)c3ccccc3)C(=O)N2[C@H]1C(=O)O [Example 4, D-α-(4-hydroxycinnoline-3-carbonamido)benzylpenicillin]",12.5,0.78,12.5,12.5,0.78,12.5,–
"CC1(C)S[C@@H]2[C@H](NC(=O)[C@H](NC(=O)c3ccnnc3O)c3ccccc3)C(=O)N2[C@H]1C(=O)O [Example 5, D-α-(3hydroxypyridazine-4-carbonamido)benzylpenicillin]",12.5,0.39,3.13,6.25,0.05,6.25,–
CC1(C)S[C@@H]2[C@H](NC(=O)[C@H](NC(=O)c3cnc4cccnc4c3O)C3=CCC=CC3)C(=O)N2[C@H]1C(=O)O [Example 6],1.56,0.39,1.56,3.13,< 0.05,3.13,–
CC1(C)S[C@@H]2[C@H](NC(=O)[C@H](NC(=O)c3cnc(O)nc3O)c3ccccc3)C(=O)N2[C@H]1C(=O)O [Example 7],12.5,0.39,3.13,25,0.05,6.25,–
CC1(C)S[C@@H]2[C@H](NC(=O)[C@H](NC(=O)c3cncnc3O)c3ccccc3)C(=O)N2[C@H]1C(=O)O [Example 8],25,0.39,3.13,100,0.05,12.5,–
CC1(C)S[C@@H]2[C@H](NC(=O)[C@H](NC(=O)c3cnc4ccccc4c3O)c3ccccc3)C(=O)N2[C@H]1C(=O)O [Example 9],–,–,–,–,0.2,–,–
CC1(C)S[C@@H]2[C@H](NC(=O)[C@H](NC(=O)c3ncccc3O)c3ccccc3)C(=O)N2[C@H]1C(=O)O [Example 10],6.25,0.2,6.25,25,0.2,25,–
CC1(C)S[C@@H]2[C@H](NC(=O)[C@H](NC(=O)c3cccnc3O)c3ccccc3)C(=O)N2[C@H]1C(=O)O [Example 11],12.5,0.39,6.25,25,0.2,25,–
CC1(C)S[C@@H]2[C@H](NC(=O)[C@H](NC(=O)c3cnc4c(c3O)CCCC4)c3ccccc3)C(=O)N2[C@H]1C(=O)O [Example 12],12.5,0.78,12.5,6.25,0.05,6.25,–
Cc1ccc(C(=O)N[C@@H](C(=O)N[C@@H]2C(=O)N3[C@@H]2SC(C)(C)[C@@H]3C(=O)O)c2ccccc2)c(O)n1 [Example 13],12.5,0.39,12.5,25,0.2,12.5,–
CN(C)c1ccc2ncc(C(=O)N[C@@H](C(=O)N[C@@H]3C(=O)N4[C@@H]3SC(C)(C)[C@@H]4C(=O)O)c3ccc(O)cc3)c(O)c2n1 [Example 14],1.56,3.13,3.13,3.13,0.1,1.56,–
Cc1ccc2c(O)c(C(=O)N[C@@H](C(=O)N[C@@H]3C(=O)N4[C@@H]3SC(C)(C)[C@@H]4C(=O)O)c3ccccc3)cnc2n1 [Example 15],3.13,0.39,3.13,1.56,0.2,3.13,–
COc1cc2ncc(C(=O)N[C@@H](C(=O)N[C@@H]3C(=O)N4[C@@H]3SC(C)(C)[C@@H]4C(=O)O)c3ccccc3)c(O)c2cn1 [Example 16],–,–,6.25,6.25,0.2,–,–
CC(=O)Nc1ccc2ncc(C(=O)N[C@@H](C(=O)N[C@@H]3C(=O)N4[C@@H]3SC(C)(C)[C@@H]4C(=O)O)c3ccccc3)c(O)c2c1 [Example 17],12.5,0.78,6.25,3.13,0.1,3.13,–
CC1(C)S[C@@H]2[C@H](NC(=O)[C@H](NC(=O)c3cnccc3O)c3ccc(O)cc3)C(=O)N2[C@H]1C(=O)O [Example 18],12.5,1.56,3.13,200,0.2,25,–
Cc1ccc2c(O)c(C(=O)N[C@@H](C(=O)N[C@@H]3C(=O)N4[C@@H]3SC(C)(C)[C@@H]4C(=O)O)c3ccc(O)cc3)cnc2n1 [Example 19],6.25,1.56,–,–,0.39,25,–
CC1(C)S[C@@H]2[C@H](NC(=O)[C@H](NC(=O)c3cnc4cn[nH]c4c3O)c3ccccc3)C(=O)N2[C@H]1C(=O)O [Example 20],3.13,0.78,6.25,6.25,0.1,3.13,–
CC1(C)S[C@@H]2[C@H](NC(=O)[C@H](NC(=O)c3nc4ccccc4nc3O)c3ccccc3)C(=O)N2[C@H]1C(=O)O [Example 21],6.25,0.2,1.56,12.5,0.78,25,–
CC1(C)S[C@@H]2[C@H](NC(=O)[C@H](NC(=O)c3cnc4ccccc4c3O)c3ccc(O)cc3)C(=O)N2[C@H]1C(=O)O [Example 22],6.25,–,–,–,0.2,–,–
CC1(C)S[C@@H]2[C@H](NC(=O)[C@H](NC(=O)c3nnc4ccccc4c3O)c3ccc(O)cc3)C(=O)N2[C@H]1C(=O)O [Example 23],–,–,–,–,0.78,–,–
Cc1ccc2ncc(C(=O)N[C@@H](C(=O)N[C@@H]3C(=O)N4[C@@H]3SC(C)(C)[C@@H]4C(=O)O)c3ccc(O)cc3)c(O)c2n1 [Example 26],1.56,–,–,–,0.05,–,–
COc1ccc2ncc(C(=O)N[C@@H](C(=O)N[C@@H]3C(=O)N4[C@@H]3SC(C)(C)[C@@H]4C(=O)O)c3ccc(O)cc3)c(O)c2n1 [Example 27],3.13,–,–,–,0.05,–,–
CN(C)c1ccc2ncc(C(=O)N[C@@H](C(=O)N[C@@H]3C(=O)N4[C@@H]3SC(C)(C)[C@@H]4C(=O)O)C3=CCC=CC3)c(O)c2n1 [Example 28],1.56,0.78,3.13,6.25,0.05,1.56,–
CC1(C)S[C@@H]2[C@H](NC(=O)C(c3ccccc3)S(=O)(=O)O)C(=O)N2[C@H]1C(=O)O (stereo partly shown) [Sulfocillin],–,–,–,–,–,–,not sufficiently strong

# Reference: patent publication US4005075A, “Penicillins and their preparation” (Sumitomo Chemical Company, Limited, priority 1973, dated 1977)
